From the supplement of paper PMC11208160

Assay: recombinant UMI read abundance after kanamycin selection (control-corrected) (log10(CPM+1)); higher = more efficient recombination; extreme values may be limits of the assay; sequences stand for … in AGTGCAGAGAAAATCGGCCAGTTTTCTCTGCCTGCAGTCCGCATGCCGTGGGACCCCTTGGGTTCTAACCTGTTGCCTAGATTTATGCAGCGGACTGCCTTTCTCCCAAAGTGATAAACCGG…AGGTTGGTTTCACT; site = the 11-nt donor
Procedure, shortened: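 Reported values are log10(CPM+1) from a pooled Escherichia coli screen of donor and donor-binding-loop pairs for the IS621 bridge recombinase. Selection used IPTG (0.07 mM) plus kanamycin, against unselected plating, each in two replicates. Recombinant UMIs were amplified across the donor–target junction, sequenced, converted to CPM, averaged over replicates and scaled by control-derived factors.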
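Further: IS621 bridge recombinase in Escherichia coli cells against a fixed T5 target plasmid.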

In order of falling “recombinant UMI read abundance (log10)” value:
1. AGACATGCATGGACCGGTTTTCCCGGTAATCCGTATTTGCC (site AGACATGCTGG)  3.01
2. ACTTACTCATGGACCGGTTTTCCCGGTAATCCGTATTTGAC (site ACTTACTCTGT)  2.81
3. AGCGTTTCATGGACCGGTTTTCCCGGTAATCCGTATTTGAC (site AGCGTTTCTGT)  2.63
4. CAATTGACATGGACCGGTTTTCCCGGTAATCCGTATTTGCG (site CAATTGACTCG)  2.58
5. GTACTCGCATGGACCGGTTTTCCCGGTAATCCGTATTTGTC (site GTACTCGCTGA)  2.42
6. CGTGGATCATGGACCGGTTTTCCCGGTAATCCGTATTTGTT (site CGTGGATCTAA)  2.34
7. ACAGAGACATGGACCGGTTTTCCCGGTAATCCGTATTTGCG (site TCAGAGACTCG)  2.18
8. CGACCATCATGGACCGGTTTTCCCGGTAATCCGTATTTGCT (site CGACCATCTAG)  2.13
9. AAAGTCTCATGGACCGGTTTTCCCGGTAATCCGTATTTGCA (site ACAGTATCTTG)  1.99
10. GCAGGTGCATGGACCGGTTTTCCCGGTAATCCGTATTTGAT (site CCAGGTGCTAT)  1.91
11. CGGGAGTCATGGACCGGTTTTCCCGGTAATCCGTATTTGTC (site CGGGAGTCTGT)  1.9
12. CGGGGGTCATGGACCGGTTTTCCCGGTAATCCGTATTTGCC (site CGGGGGTCTGG)  1.86
13. GGCTACACATGGACCGGTTTTCCCGGTAATCCGTATTTGCA (site GGCTACACTTG)  1.86
14. ACGGCATCATGGACCGGTTTTCCCGGTAATCCGTATTTGCA (site ACGGCATCTTG)  1.77
15. AGAAGGGCATGGACCGGTTTTCCCGGTAATCCGTATTTGCT (site AGAAAGGCTAG)  1.73
16. TCAGTAACATGGACCGGTTTTCCCGGTAATCCGTATTTGTA (site TCAGTAACTTA)  1.71
17. CTGGTTACATGGACCGGTTTTCCCGGTAATCCGTATTTGAG (site CTGGTTACTCT)  1.7
18. GCTTCCGCATGGACCGGTTTTCCCGGTAATCCGTATTTGTT (site GCTTCCGCTAA)  1.48
19. CAAGCAGCATGGACCGGTTTTCCCGGTAATCCGTATTTGCA (site CAAGCAGCTCG)  1.43
20. GGGGCAACATGGACCGGTTTTCCCGGTAATCCGTATTTGCA (site GGGGCAACTTG)  1.4
21. AGGAAGACATGGACCGGTTTTCCCGGTAATCCGTATTTGCA (site AAGAAGACTTG)  1.06
22. CAAGCAGCATGGACCGGTTTTCCCGGTAATCCGTATTTGCA (site CAAGCAGCTGG)  1.06
23. GTATACCCATGGACCGGTTTTCCCGGTAATCCGTATTTGTC (site GTATACCCTGA)  1.03
24. CACGGTCCATGGACCGGTTTTCCCGGTAATCCGTATTTGAT (site CACGGTCCTAT)  0.938
25. AATTGTGCATGGACCGGTTTTCCCGGTAATCCGTATTTGGA (site AATTGTGCTTC)  0.895
26. AGGAAGACATGGACCGGTTTTCCCGGTAATCCGTATTTGCA (site AGCAAGACTTG)  0.723
27. GGAGCTACATGGACCGGTTTTCCCGGTAATCCGTATTTGAG (site GGAGCTACTCT)  0.606
28. ACCCTCACATGGACCGGTTTTCCCGGTAATCCGTATTTGTA (site ACCCTCACTTA)  0.59
29. CTCCCTACATGGACCGGTTTTCCCGGTAATCCGTATTTGAC (site CTCCCTACTAT)  0.576
30. AGGACTACATGGACCGGTTTTCCCGGTAATCCGTATTTGAG (site AGGACTACTTT)  0.493
31. CACTTGGCATGGACCGGTTTTCCCGGTAATCCGTATTTGGA (site CAATTGGCTTC)  0.432
32. TTTCGCACATGGACCGGTTTTCCCGGTAATCCGTATTTGTC (site TTTCGCACTGA)  0.308
33. CTCCCTACATGGACCGGTTTTCCCGGTAATCCGTATTTGAC (site CTCCCTACTCT)  0.293
34. GTTTCGGCATGGACCGGTTTTCCCGGTAATCCGTATTTGGT (site GTTTCGGCTAC)  0.282
35. CACTTGGCATGGACCGGTTTTCCCGGTAATCCGTATTTGGA (site TACTTGGCTTC)  0.275
36. ATGGAGACATGGACCGGTTTTCCCGGTAATCCGTATTTGGT (site ATCGAGACTAC)  0.157
37. TGTACCACATGGACCGGTTTTCCCGGTAATCCGTATTTGTA (site TGTACCACTTA)  0.131
38. GCTTGACCATGGACCGGTTTTCCCGGTAATCCGTATTTGAT (site GCTTGGCCTAT)  0.117
39. AACCGCCCATGGACCGGTTTTCCCGGTAATCCGTATTTGAT (site AACCGTCCTAT)  0.0447
40. AATGTATCATGGACCGGTTTTCCCGGTAATCCGTATTTGCT (site AATGTACCTAG)  0.03
41. GGCCCACCATGGACCGGTTTTCCCGGTAATCCGTATTTGTG (site GGCCCACCTCA)  0.0252
42. CGATCGACATGGACCGGTTTTCCCGGTAATCCGTATTTGTT (site CCATCGACTAA)  0.0246
43. CAGTCGACATGGACCGGTTTTCCCGGTAATCCGTATTTGGG (site CACTCGACTCC)  0.0212
44. CGAGGACCATGGACCGGTTTTCCCGGTAATCCGTATTTGGG (site TGAGGACCTCC)  0.02
45. TTTGCGGCATGGACCGGTTTTCCCGGTAATCCGTATTTGCG (site TTTGCGGCTCG)  0.0191
46. CTGTCAGCATGGACCGGTTTTCCCGGTAATCCGTATTTGGG (site CTGTCAGCTCC)  0.0174
47. CATGGAACATGGACCGGTTTTCCCGGTAATCCGTATTTGTT (site CGTGGAACTAA)  0.0146
48. TAGCTAGCATGGACCGGTTTTCCCGGTAATCCGTATTTGAA (site TAGATAGCTTT)  0.0135
49. TGTTCCCCATGGACCGGTTTTCCCGGTAATCCGTATTTGAA (site TGTTCCCCTTA)  0.0134
50. AGGAAGACATGGACCGGTTTTCCCGGTAATCCGTATTTGCA (site ATGAAGACTTC)  0.0122
51. TACTCTCCATGGACCGGTTTTCCCGGTAATCCGTATTTGTG (site TACTCTCCTCA)  0.011
52. GCCACCCCATGGACCGGTTTTCCCGGTAATCCGTATTTGTA (site GCCACTCCTTA)  0.0101
53. TGGGGACCATGGACCGGTTTTCCCGGTAATCCGTATTTGCG (site TGGGGACCTCG)  0.00873
54. CCGTTAGCATGGACCGGTTTTCCCGGTAATCCGTATTTGTG (site TCGTTAGCTCA)  0.00762
55. GGGGCACCATGGACCGGTTTTCCCGGTAATCCGTATTTGCC (site GGGGCACCTCG)  0.0076
56. ACTAGTCCATGGACCGGTTTTCCCGGTAATCCGTATTTGGT (site ACTAGTGCTAC)  0.00689
57. CGGATTCCATGGACCGGTTTTCCCGGTAATCCGTATTTGTT (site CGGAATCCTAA)  0.00458
58. CTAGGACCATGGACCGGTTTTCCCGGTAATCCGTATTTGTG (site CTAGGACCTCA)  0.00443
59. CTTCTAACATGGACCGGTTTTCCCGGTAATCCGTATTTGGA (site CTCCTAACTTC)  0.00424
60. TGTTCCCCATGGACCGGTTTTCCCGGTAATCCGTATTTGGA (site TGTTCCCCTTG)  0.00301
61. TCTGAGCCATGGACCGGTTTTCCCGGTAATCCGTATTTGAT (site TCTGAGCCTAT)  0.00231
62. CTAGGACCATGGACCGGTTTTCCCGGTAATCCGTATTTGGG (site CGAGGACCTCC)  0
63. ATAAGGCCATGGACCGGTTTTCCCGGTAATCCGTATTTGAC (site AAAAGGCCTGT)  0
64. TCCAATCCATGGACCGGTTTTCCCGGTAATCCGTATTTGCC (site TCCAATGCTGG)  0
65. GAGAATACATGGACCGGTTTTCCCGGTAATCCGTATTTGCA (site AAGAATACTTG)  0
66. CTCACACCATGGACCGGTTTTCCCGGTAATCCGTATTTGTC (site CTCACACCTGA)  0
67. GTTCCAGCATGGACCGGTTTTCCCGGTAATCCGTATTTGCA (site GTTCAAGCTTG)  0
68. CTACTTTCATGGACCGGTTTTCCCGGTAATCCGTATTTGAC (site CTAGTATCTGT)  0
69. GGGGGACCATGGACCGGTTTTCCCGGTAATCCGTATTTGCA (site GGGGAACCTTG)  0
70. CCGATATCATGGACCGGTTTTCCCGGTAATCCGTATTTGTC (site CCAATATCTGA)  0
71. CGGACATCATGGACCGGTTTTCCCGGTAATCCGTATTTGCT (site CGGAAATCTAG)  0
72. TCTACACCATGGACCGGTTTTCCCGGTAATCCGTATTTGAC (site TGTACACCTGT)  0
73. CGCATATCATGGACCGGTTTTCCCGGTAATCCGTATTTGTC (site CCCATATCTGA)  0
74. CTTGTACCATGGACCGGTTTTCCCGGTAATCCGTATTTGAC (site CTAGTATCTGT)  0
75. GGCAAGCCATGGACCGGTTTTCCCGGTAATCCGTATTTGAA (site GGCAATCCTTT)  0
